This test is described as follows: Inhibition of Bacillus anthracis lethal toxin-induced mouse RAW264.7 cell death preincubated for 1 hr followed by lethal toxin challenge measured after 4 hrs.
The compound `Cc1cccc(C)c1NC(=O)N/N=C/c1ccc(Br)cc1F` returned an IC50 of 400 nM.
`CCc1cccc(CC)c1NC(=O)N/N=C/c1ccc(Br)cc1`: the IC50 is greater than 12500 nM.
Next, `Cc1cccc(C)c1NC(=O)N/N=C/c1ccc(C(F)(F)F)cc1`: 2600 nM.
`Cc1cccc(C)c1/N=C(\N)N/N=C/c1ccc(Br)cc1` yielded an IC50 of 13800 nM.
`C/C(=N\NC(=O)Nc1c(C)cccc1C)c1ccc(Br)cc1` displayed an IC50 of 2500 nM.
As for `Cc1cccc(C)c1NC(=O)N/N=C/c1c(F)c(F)c(N=[N+]=[N-])c(F)c1F`, the IC50 was greater than 25000 nM.
Regarding `Cc1cccc(C)c1NC(=O)N/N=C/c1ccc(Br)cc1Cl`, the IC50 came out at 3200 nM.
The compound `Cc1cccc(C)c1NC(=O)N/N=C/c1ccc(I)cc1` yielded an IC50 of 1800 nM. This IC50 is about 1.8-fold lower than that of the compound before.
Next, `Cc1cccc(C)c1NC(=S)N/N=C/c1ccc(Br)cc1`: 1500 nM.
`Cc1ccc(/C=N/NC(=O)Nc2c(C)cccc2C)cc1F`: the IC50 came to 1800 nM. The IC50 values of the last two compounds are within 1.5-fold of each other.
Next, `Cc1cccc(C)c1NC(=O)N/N=C/c1ccc(C#N)cc1`: 2500 nM; `C#Cc1ccc(/C=N/NC(=O)Nc2c(C)cccc2C)cc1`: 1700 nM.
For `Cc1cccc(C)c1NC(=O)N/N=C/c1ccc(Cl)cc1`, the half-inhibitory concentration (IC50) came out at 1700 nM. This lies in the single-digit micromolar range.
In turn, `Cc1cccc(C)c1NC(=O)N/N=C/c1ccc(N=[N+]=[N-])cc1F` displayed an IC50 of 2200 nM. This IC50 and that of the compound before are within 1.5-fold of each other.
Take `Cc1cccc(C)c1NC(=O)N/N=C/c1ccc(F)cc1`: the half-inhibitory concentration (IC50) worked out at 7000 nM.
With `Cc1cccc(C)c1NC(=O)N/N=C/c1ccc(F)cc1F`, the IC50 stood at 2100 nM. Compared with the last compound, the IC50 is about 3.3-fold lower.
As to `Cc1cccc(C)c1NC(=O)N/N=C/c1ccc(Br)c(F)c1`, half-maximal inhibition (IC50) required 1500 nM.
`Cc1cccc(/C=N/NC(=O)Nc2c(C)cccc2C)c1` showed an IC50 of 13400 nM.
`Cc1cccc(C)c1NC(=O)N/N=C/c1ccc(Br)o1` displayed an IC50 greater than 25000 nM.
Next, `Cc1cccc(C)c1NC(=O)N(C)/N=C/c1ccc(Br)cc1`: 2000 nM; `Cc1cccc(C)c1NC(=O)N/N=C/c1ccccc1F`: 8200 nM; `C#CCN(/N=C/c1ccc(Br)cc1)C(=O)Nc1c(C)cccc1C`: greater than 12500 nM.
The compound `Cc1cccc(C)c1NC(=O)N/N=C/c1ccc(Br)c(Cl)c1` had an IC50 of 3400 nM.
For `Cc1cccc(C)c1NC(=O)N/N=C/c1ccc(C(C)C)cc1` the value was 6500 nM; for `COc1ccc(/C=N/NC(=O)Nc2c(C)cccc2C)cc1`, greater than 12500 nM; for `Cc1cccc(C)c1NC(=O)N/N=C/c1ccc(N=[N+]=[N-])cc1`, 2800 nM.
In turn, `Cc1cccc(C)c1NC(=O)N/N=C/c1ccc(Br)cc1` displayed an IC50 of 1400 nM.
Take `Cc1ccc(/C=N/NC(=O)Nc2c(C)cccc2C)cc1`: it took 2900 nM to reach half-maximal inhibition (IC50).
For `Cc1cccc(C)c1NC(=O)N/N=C/c1c(F)cc(Br)cc1F`, the midpoint of inhibition, the IC50, lay at 4000 nM. The IC50 values of the last two compounds are within 1.5-fold of each other.
For `Cc1cc(C)c(NC(=O)N/N=C/c2ccc(Br)cc2)c(C)c1` the value was 12600 nM.
`CCc1ccc(/C=N/NC(=O)Nc2c(C)cccc2C)cc1` had an IC50 of 3000 nM.
Consider `Cc1cccc(C)c1NC(=O)N/N=C/c1ccc(Br)s1`, for which half-maximal inhibition (IC50) required 1700 nM.
The compound `Cc1cccc(C)c1NC(=O)N/N=C/c1cccs1` gave an IC50 greater than 25000 nM.

What is called IC50 is the point on the concentration scale where inhibition reaches its midpoint. A higher IC50 goes with weaker potency.

The values above are taken from BindingDB's records for doi:10.1021/ml400486k (University of California, 2014).
